This assay concerns the target T1, human PAD4 (Homo sapiens, UniProt Q9UM07).
T1 construct: human PAD4 (NM_012387), A2-P663, was PCR amplified; His-SUMO (N, cleaved yes); made in house; host or cells: E. coli BL21(DE3)
The assay is described as follows: In vitro PAD4 BAEE biochemical assay. The following applies: BAEE substrate 3 mM, 5 nM PAD4, 2 mM calcium chloride; geometric mean of multiple experiments. The gist of the method: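 Ammonia produced by BAEE deimination (3 mM substrate, 2 h, 25 °C) was read as fluorescent isoindole after o-phthalaldehyde/DTT derivatization, ex 405 nm/em 535 nm. Human PAD4 at 5 nM final, 2 mM calcium, pH 7.6 MOPS; compound preincubated 30 min. IC50s, normalized to BB-Cl-Amidine and DMSO controls, were geometric-mean averaged.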

Data on 17 compounds can be found in patent US11976083B2, “Inhibitors of peptidylarginine deiminases” (Gilead Sciences, Inc., priority 2020, dated 2024).

T1 sequence (Q9UM07 2-663): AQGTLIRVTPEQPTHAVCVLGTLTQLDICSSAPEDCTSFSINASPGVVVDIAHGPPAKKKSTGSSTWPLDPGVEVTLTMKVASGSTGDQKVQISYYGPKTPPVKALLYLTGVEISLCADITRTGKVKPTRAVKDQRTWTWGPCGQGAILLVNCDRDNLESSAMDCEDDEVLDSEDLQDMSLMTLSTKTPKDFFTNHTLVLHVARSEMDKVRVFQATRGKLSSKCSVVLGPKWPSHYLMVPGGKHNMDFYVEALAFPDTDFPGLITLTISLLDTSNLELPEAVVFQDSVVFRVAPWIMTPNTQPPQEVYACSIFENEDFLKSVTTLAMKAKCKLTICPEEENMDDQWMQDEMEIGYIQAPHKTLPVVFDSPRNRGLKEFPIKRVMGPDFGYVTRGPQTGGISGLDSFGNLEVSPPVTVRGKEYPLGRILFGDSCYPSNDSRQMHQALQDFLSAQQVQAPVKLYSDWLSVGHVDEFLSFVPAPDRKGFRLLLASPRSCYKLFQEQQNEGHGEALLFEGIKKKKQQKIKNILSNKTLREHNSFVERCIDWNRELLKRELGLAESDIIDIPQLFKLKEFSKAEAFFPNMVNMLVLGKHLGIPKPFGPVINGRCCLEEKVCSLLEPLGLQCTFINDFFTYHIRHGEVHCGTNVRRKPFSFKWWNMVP

Turning to `COc1cc(C(=O)N2[C@H]3CC[C@@H]2[C@H](N)C3)cc2nc(-c3cc4ccc5nc4n3CCCCCCCC(=O)NC5)n(C)c12` [Example 255, 17-[5-[(1~{R},2~{R},4~{S})-2-amino-7-azabicyclo[2.2.1]heptane-7-carbonyl]-7-methoxy-1-methyl-benzimidazol-2-yl]-1,10,19-triazatricyclo[10.5.2.0^{15,18}]nonadeca-12(19),13,15(18),16-tetraen-9-one], the IC50 is 59 nM.
Then `COc1cc(C(=O)N2CC[C@@H](OC(F)F)[C@@H](N)C2)cc2nc(-c3cc4ccc5nc4n3CC(F)(F)CCCCC3(CC(F)(F)C3)C(=O)N[C@@H]5C)n(C)c12` [Example 822, (11~{R})-17-[5-[(3~{S},4~ {R})-3-amino-4-(difluoromethoxy)piperidine-1-carbonyl]-7-methoxy-1-methyl-benzimidazol-2-yl]-1′,1′,3,3-tetrafluoro-11-methyl-spiro [1,10,19-triazatricyclo [10.5.2.0^{15,18}]nonadeca-12(19),13,15(18),16-tetraene-8,3′-cyclobutane]-9-one], with 205 nM.
Next, `C[C@H]1NC(=O)[C@@]2(C)C[C@@H]2CCCCCn2c(-c3nc4cc(C(=O)N[C@H]5CNCC[C@@H]5F)c(F)cc4n3C3CC3)cc3ccc1nc32` [Example 545, 1-cyclopropyl-2-[(2~ {R},5~{S},7~{S})-2,5-dimethyl-4-oxo-3,13,19-triazatetracyclo[11.5.2.0^ {5,7}.0^{16,20}]icosa-1(19),14,16(20), 17-tetraen-14-yl]-6-fluoro-~{N}-[(3~ {S},4~{S})-4-fluoro-3-piperidyl]benzimidazole-5-carboxamide]: 56 nM.
Then `COc1cc(C(=O)N2[C@H]3CC[C@@H]2[C@H](N)C3)cc2nc(-c3cc4ccc5nc4n3CCCCCC(=O)N[C@@H]5C)c(C)n12` [Example 320, (9~{R})-15-[7-[(1~{R},2~{R},4~{S})-2-amino-7-azabicyclo[2.2.1]heptane-7-carbonyl]-5-methoxy-3-methyl-imidazo[1,2-a]pyridin-2-yl]-9-methyl-1,8,17-triazatricyclo[8.5.2.0^{13,16}]heptadeca-10(17),11,13(16),14-tetraen-7-one], with 17 nM.
Turning to `COc1cc(C(=O)N2[C@H]3CC[C@@H]2[C@H](N)C3)cc2nc(-c3cc4ccc5nc4n3CCCCCCOCC(=O)N[C@@H]5C)c(C)n12` [Example 248, (12~{R})-18-[7-[(1~{R},2~{R},4~{S})-2-amino-7-azabicyclo[2.2.1]heptane-7-carbonyl]-5-methoxy-3-methyl-imidazo[1,2-a]pyridin-2-yl]-12-methyl-8-oxa-1,11,20-triazatricyclo[11.5.2.0^{16,19}]icosa-13(20),14,16(19),17-tetraen-10-one], the IC50 was 44 nM.
Next, `COc1cc(C(=O)N2CC[C@@H](OC)[C@@H](N)C2)cc2nc(-c3cc4ccc5nc4n3CC(F)(F)CCCC[C@@](C)(C(F)(F)F)C(=O)N[C@@H]5C)n(C)c12` [Example 727, (8~{R},11~{R})-17-[5-[(3~{S), 4~{R})-3-amino-4-methoxy-piperidine-1-carbonyl]-7-methoxy-1-methyl-benzimidazol-2-yl]-3,3-difluoro-8,11-dimethyl-8-(trifluoromethyl)-1,10,19-triazatricyclo[10.5.2.0^ {15,18}]nonadeca-12(19),13,15(18),16-tetraen-9-one]: 93 nM; `CO[C@@H]1CCN(C(=O)c2cc(F)c3c(c2)nc(-c2cc4ccc5nc4n2CC(F)(F)CCC[C@]2(F)C[C@H]2C(=O)N[C@@H]5C)n3C2CC2)C[C@@H]1N` [Example 700, (2~{R},5~{S},7~{S})-14-[5-[(3~{S},4~{R})-3-amino-4-methoxy-piperidine-1-carbonyl]-1-cyclopropyl-7-fluoro-benzimidazol-2-yl]-7,11,11-trifluoro-2-methyl-3,13,19-triazatetracyclo[11.5.2.0^ {5,7}.0^{16,20}]icosa-1(19),14,16(20),17-tetraen-4-one]: 22 nM.
Next, `COc1cc(C(=O)N2CCC[C@@H](N)[C@H]2C)cc2nc(-c3cc4ccc5nc4n3CCCCCc3ccnc(C4CC4)c3C(=O)N[C@@H]5C)n(C)c12` [Example 664, (2~{R})-17-[5-[(2~{R},3~ {R})-3-amino-2-methyl-piperidine-1-carbonyl]-7-methoxy-1-methyl-benzimidazol-2-yl]-6-cyclopropyl-2-methyl-3,7,16,22-tetrazatetracyclo[14.5.2.0^ {5,10}.0^{19,23}] tricosa-1(22),5,7,9,17,19(23), 20-heptaen-4-one]: 51 nM.
Turning to `COc1cc(C(=O)N2[C@H]3CC[C@@H]2[C@H](N)C3)cc2nc(-c3cc4ccc5nc4n3C[C@@H]3CC[C@@H]3COCCC(=O)N[C@@H]5C)c(C)n12` [Example 9, (3~{R},6~{S},13~{R})-19-[7-[(1~{R},2~{R},4~{S})-2-amino-7-azabicyclo[2.2.1]heptane-7-carbonyl]-5-methoxy-3-methyl-imidazo[1,2-a]pyridin-2-yl]-13-methyl-8-oxa-1,12,21-triazatetracyclo[12.5.2.0^{3,6}.0^{17,20}] henicosa-14(21),15,17(20),18-tetraen-11-one], the IC50 stood at 53 nM.
Next, `C[C@H]1NC(=O)c2ccccc2CCCCCn2c(-c3nc4cc(C(=O)N[C@H]5CNCC[C@@H]5F)c(F)cc4n3C3CC3)cc3ccc1nc32` [Example 347, 1-cyclopropyl-6-fluoro-~{N}-[(3~{S},4~{S})-4-fluoro-3-piperidyl]-2-[(2~{R})-2-methyl-4-oxo-3,16,22-triazatetracyclo[14.5.2.0^{5,10}.0^{19,23}]tricosa-1(22),5,7,9,17,19(23),20-heptaen-17-yl]benzimidazole-5-carboxamide]: 51 nM; `COc1cc(C(=O)N2[C@H]3CC[C@@H]2[C@H](N)C3)cc2nc(-c3cc4ccc5nc4n3CCCCCn3ccc(n3)C(=O)N[C@@H]5C)c(C)n12` [Example 33, (2~{R})-15-[7-[(1~{R},2~{R),4~{S})-2-amino-7-azabicyclo[2.2.1]heptane-7-carbonyl]-5-methoxy-3-methyl-imidazo[1,2-a]pyridin-2-yl]-2-methyl-3,8,14,20,22-pentazatetracyclo[12.5.2.1^{5,8}.0^{17,21}] docosa-1(20),5(22),6,15,17(21),18-hexaen-4-one]: 248 nM.
Then `COc1cc(C(=O)N2CC[C@@H](OC)[C@@H](N)C2)cc2nc(-c3cc4ccc5nc4n3CCC/C=C/c3ccc(Cl)nc3C(=O)N[C@@H]5C)n(C)c12` [Example 781, (2~{R},11~{E})-17-[5-[(3~ {S},4~{R})-3-amino-4-methoxy-piperidine-1-carbonyl]-7-methoxy-1-methyl-benzimidazol-2-yl]-7-chloro-2-methyl-3,6,16,22-tetrazatetracyclo[14.5.2.0^ {5,10}.0^{19,23}]tricosa-1(21),5(10),6,8,11,17,19,22-octaen-4-one], with 73 nM; and `CO[C@@H]1CCN(C(=O)c2cc(Cl)c3c(c2)nc(-c2cc4ccc5nc4n2CCCCC[C@@H]2CC2C(=O)N[C@@H]5C)n3C)C[C@@H]1N` (some centres unmarked) [Example 505, (2~{R},7~{R})-14-[5-[(3~{S},4~{R})-3-amino-4-methoxy-piperidine-1-carbonyl]-7-chloro-1-methyl-benzimidazol-2-yl]-2-methyl-3,13,19-triazatetracyclo[11.5.2.0^ {5,7}.0^{16,20}]icosa-1(19),14,16(20),17-tetraen-4-one], with 97 nM.
Next, `COc1cc(C(=O)N2CCC[C@@H](N)C2)cc2nc(-c3cc4ccc5nc4n3CC(C)(C)CCCCCC(=O)N[C@@H]5C)n(C)c12` [Example 140, (11~{R})-17-[5-[(3~{R})-3-aminopiperidine-1-carbonyl]-7-methoxy-1-methyl-benzimidazol-2-yl]-3,3,11-trimethyl-1,10,19-triazatricyclo[10.5.2.0^{15,18}]nonadeca-12(19),13,15(18),16-tetraen-9-one]: 97 nM.
On to `COc1cc(C(=O)N2[C@H]3CC[C@@H]2[C@H](N)C3)cc2nc(-c3cc4ccc5nc4n3C[C@H]3C[C@H]3COCCC(=O)N[C@@H]5C)n(C)c12` [Example 336, (3~{S),5~{R},12~{R})-18-[5-[(1~{R},2~{R},4~{S})-2-amino-7-azabicyclo[2.2.1]heptane-7-carbonyl]-7-methoxy-1-methyl-benzimidazol-2-yl]-12-methyl-7-oxa-1,11,20-triazatetracyclo[11.5.2.0^{3,5}.0^{16,19}] icosa-13(20),14,16(19),17-tetraen-10-one], for which the IC50 was 34 nM.
Regarding `C[C@H]1NC(=O)[C@@H]2C[C@H]2CCCC(F)(F)Cn2c(-c3nc4cc(C(=O)N[C@H]5CNCC[C@@H]5F)c(F)c(F)c4n3C3CC3)cc3ccc1nc32` [Example 189, 1-cyclopropyl-2-[(2~{R},5~{R},7~{R})-11,11-difluoro-2-methyl-4-oxo-3,13,19-triazatetracyclo[11.5.2.0^{5,7}.0^{16,20}]icosa-1(19),14,16(20),17-tetraen-14-yl]-6,7-difluoro-~{N}-[(3~{S},4~{S})-4-fluoro-3-piperidyl]benzimidazole-5-carboxamide], the IC50 stood at 33 nM.
Next, `COc1cc(C(=O)N2[C@H]3CC[C@@H]2[C@H](N)C3)cc2nc(-c3cc4ccc5nc4n3CCCCCC[C@@H]3CCN(C3=O)[C@@H]5C)n(C)c12` [Example 138, (2˜{R},6˜{R})-14-[5-[(1˜{R},2˜{R},4˜{S})-2-amino-7-azabicyclo[2.2.1]heptane-7-carbonyl]-7-methoxy-1-methyl-benzimidazol-2-yl]-2-methyl-3,13,19-triazatetracyclo[11.5.2.1^{3,6}.0^{16,20}]henicosa-1(19),14,16(20),17-tetraen-21-one]: 18 nM.

As usually defined, the IC50 is the midpoint of a concentration-inhibition curve.
